Results: patent EP2386565A2, “Compounds and methods to inhibit or augment an inflammatory response” (Cambridge Enterprise Ltd., priority 1999, dated 2000)
Positions of bridges follow the written chain, without caps; N, C: chain ends. Non-standard residues stand in square brackets, D forms with d. Residues, ends and D or L forms follow the SMILES beside them. No end group written: not given here.

Experiments:
[1] = system: chemokine-induced THP-1 migration; test: THP-1 trans-well migration assay, several chemokines together (averages, selectivity, pan-chemokine statements); assay type: cell-based, human; conditions: for effect on chemokine-induced THP-1 migration (in words): MCP-1, MIP1α, IL-8 and SDF1α
Experimental: To determine whether an agent inhibits a chemokine-induced activity, such as macrophage recruitment, varying amounts of the agent are mixed with cells in the presence of a known chemoattractant. […] Chemokine (such as MCP-1, MIP1α, IL8 or SDF-1α), at a concentration known to cause significant migration of THP-1 cells in the trans-well migration assay, is placed in the lower compartment (Figure 1). Cells are then incubated at 37°C for a period sufficient to allow migration, e.g., 4 hours. After incubation, the cells are gently removed from the top of the filter with a pipette, 20 µl of 20 mM EDTA in simple PBS is added into each top well, and incubated for 20 minutes at 4°C. The filter is carefully flushed with media using a gentle flow, and removed. […] The media is carefully aspirated from each well, and the converted dye is solubilized by 20 µl of DMSO.
Chemotaxis was induced in a 96-well disposable chemotaxis chamber fitted with a 5 µM polycarbonate filter (PVP free, ChemoTX, Neuroprobe Inc., Cabin John). […] The framed filter was aligned with the holes in the corner of the filter frame and placed over the wells.
Peptides were dissolved in Milli Q water and then serially diluted in culture medium. In most cases, the serially diluted peptides were added to the upper compartment of the chemotaxis chamber. The chamber was incubated at 37°C in a humidified atmosphere of 5% CO2 for 4 hours.
After incubation, the cells were gently removed from the top of the filter with a pipette, 20 µl of 20 mM EDTA in PBS was added into each top well, and the mixture was incubated for 20 minutes at 4°C. The filter was then carefully flushed with media using a gentle flow, and removed. […] The curve was based on a two-fold dilution series of THP-1 cells (top standard 100,000 cells in 29 µl). […] The media was carefully aspirated from each well, and the converted dye was solubilized by 20 µl of DMSO.
Representative chemokines included […] ("CC"), MIP-1α and RANTES, and two alpha-chemokines ("CXC"), IL-8 and SDF-1α. Additionally, to determine the specificity ofpeptide 3(1-12)[MCP-1]
The number of pluses is a qualitative indicating of the activity of each peptide in each assay.

HIV = assay type: cell-based; conditions: ns = not significant
gp120 = conditions: ns = not significant; >100 = ED50 not determined
Experimental: Binding assays. Cells (either Jurkat T-cells or THP-1 cells) were grown in RPMI 1640 medium supplemented with 10% fetal calf serum, 2 mM glutamine, 20 µM β-mercaptoethanol, 100 U/ml penicillin and 100 µg/ml streptomycin and maintained between 2 × 10^5 and 1 × 10^6 cells/ml. Prior to performing a binding assay, cells were spun out (100 × g; 4 minutes) and washed 3 times in ice-cold PBS. A volume of cell suspension in PBS containing 10^6 cells (for Jurkat cells) or 4 × 10^5 cells (for THP-1 cells) was pipetted into each well of a V-bottom 96-well plate (Gibco BRL) and spun out (100 x g; 4 minutes). Triplicate wells were then resuspended in 100 µl binding medium (PBS pH 7.2 containing 0.1% fatty acid-free bovine serum albumin (BSA)) containing labeled peptide in the presence or absence of various concentrations of unlabeled peptide. The plate was then incubated on ice for 90 minutes. Cells were washed 3 times with 380 µl of ice-cold PBS, spinning out the cells each time (100 × g; 4 minutes), and resuspended in 100 µl binding medium containing streptavidin-peroxidase (Amersham International) at 1:1000 dilution. Cells were incubated for a further 15 minutes on ice to allow labeling of any bound biotinylated peptide, then washed 4 times as above. Cells were then incubated with 200 µl TMB substrate (K-Blue, Bionostics) for 20 minutes at room temperature, and the reaction stopped by addition of 50 µl 2 M HCl. The plate was spun (3,000 × g; 3 minutes) and 200 µl of the colored product was transferred to an empty 96-well ELISA plate and the absorbance at 450 nm determined. For each assay, the absorbance of a blank reaction (no peptide added) was subtracted from all readings before further analysis.
Binding experiments with labeled peptide 2 were performed with 10 nM labeled peptide in each reaction.

| Compound | effect on chemokine-induced THP-1 migration (in words) [1] | % virus inhibition (HIV) | also measured |
| --- | --- | --- | --- |
| CC[C@@H](C)[C@H]1NC(=O)[C@@H](CCC(N)=O)NC(=O)[C@H](N)CSSC[C@H](C(N)=O)NC(=O)[C@@H](CC(C)C)NC(=O)[C@@H](CC(=O)O)NC(=O)[C@H]2CCCN2C(=O)[C@@H](CCCCN)NC(=O)[C@@H](CCC(N)=O)NC(=O)[C@@H](CCCCN)NC(=O)[C@@H](Cc2c[nH]c3ccccc23)NC1=O (H-[dC][dQ][dI][dW][dK][dQ][dK][dP][dD][dL][dC]-NH2; disulfide 1-11) | very similar ED50s |  | Average ED50 ([1]; average inhibitory ED50 for THP-1 migration induced by each of the chemokines): 100 nM |
| CC[C@H](C)[C@H](NC(=O)[C@H](C)NC(=O)[C@H](CC(=O)O)NC(=O)[C@@H]1CCCN1C(=O)[C@H](CCC(N)=O)NC(=O)[C@H](C)N)C(=O)N[C@@H](CC(N)=O)C(=O)N[C@@H](C)C(=O)N1CCC[C@H]1C(=O)N[C@H](C(=O)N[C@H](C(=O)N[C@@H](CS)C(=O)N[C@@H](CS)C(=O)O)[C@@H](C)O)C(C)C [Peptide 1] (H-AQPDAINAPVTCC-OH; N-terminus and C-terminus assumed) | no significant effect |  | % inhibition at 100 µM of migration induced by any of the chemokines tested ([1]; 100 µM, CC and CXC chemokines): ≤ 20% |
| =cvaekpsksstirrysc= ([dC][dV][dA][dE][dK][dP][dS][dK][dS][dS][dT][dI][dR][dR][dY][dS][dC]; bridge 1-17 (inferred); not fully specified; printed as =cvaekpsksstirrysc=) |  | ns | gp120 ED-50 (µM) (gp120): ns |
| CSYRRITSSKSPKEAVC |  | ns | gp120 ED-50 (gp120): >100 µM |
